Test system: C2C12 cell line expressing firefly luciferase mRNA with r(CUG)800 in the 3′ UTR
Assay: Luciferase reporter assay for DM1 translational defects in C2C12 cells
Assay type: cell-based
From the text: Exemplary Formula (I) compound 2GN8 was studied for improving translational defects associated with DM1 (due to poor nucleocytoplasmic transport of r(CUG)^exp containing transcripts).^(30, 52, 53) In particular, a cellular model system was employed in which the C2C12 cell line stably expresses r(CUG)800 embedded in the 3′ UTR of firefly luciferase.^(54) Similar to DMPK mRNA in DM1-affected cells, the expanded repeat impairs nucleocytoplasmic transport of luciferase mRNA and thus decreases luciferase expression. Compounds that bind r(CUG)^exp and disrupt the r(CUG)^exp-MBNL1 complex may stimulate cytoplasmic transport of the luciferase mRNA and thus translation of luciferase (FIG. 9A).
C2C12 cell lines expressing 800 or 0 CTG repeats in the 3′ UTR of luciferase were grown as monolayers in 96-well plates in growth medium (1×DMEM, 10% FBS, 1× glutagro, (Corning) and 1× antibiotic/antimycotic (Corning))(66). Once the cells were 80% confluent, 2GN8 (300, 200 and 100 μM) was added in 100 μL of growth medium. Cells were treated for 48 h and then the cell count was normalized using WST-1 reagent (Roche). Then cells were washed with 1×DPBS and lysed by treating with 50 μL of PPBT lysis buffer at room temperature for 10 minutes. Then 50 μL of luciferase substrate was added and luminescence was measured.

**Q.** Which results are given for `N=C(N)Nc1ccc2nc(-c3ccc(-c4nc5ccc(NC(=N)N)cc5[nH]4)cc3)[nH]c2c1` [Compound 2GN8]?
**A.** luciferase activity in cells without r(CUG)800 (C2C12 cells expressing firefly luciferase mRNA without r(CUG)800): does not affect luciferase activity; luciferase activity (improvement of translational defect) (C2C12 cells with r(CUG)800, 300 and 200 μM, 48 h): significant increase
